In assay [1] the test system is PAP-specific IFNγ-secreting T cells (PBMC). The assay can be described thus: IFNγ ELISPOT of patient PBMC stimulated with PAP antigen. It counts as cell-based, human. As to conditions: PBMC from 22 patients after vaccine and pembrolizumab; IDO enzyme 5 ug/mL or 1-MDT 2 mM; 48 hours; changes not statistically significant. The protocol: ELISPOT for measuring IFNγ release was performed as previously described (21). For these analyses, cryopreserved PBMC were thawed, and cultured with PAP protein antigen (Fitzgerald Industries, Acton, Mass.), media alone, or phytohemaglutinin (PHA). Stimulations were also conducted in the presence of IDO enzyme (5 ug/mL) or 1-MDT (2 mM). After 48 hours, plates were developed and spots enumerated using an automated ELISPOT reader (ImmunoSpot, CTL, Shaker Heights, Ohio).
IDO activity is associated with modest decrease in vaccine antigen-specific T-cell function.

The next assay relates to T-cell activation. As to conditions: literature (ref 22); cited from earlier work.
The test system of a further assay is IDO activity. Kind of assay: Serum kynurenine-to-tryptophan (kyn:trp) ratio as measure of IDO activity in treated mCRPC patients. As to conditions: patients with mCRPC. It counts as in vivo, human. The protocol: Tryptophan and kynurenine concentrations were measured directly in serum samples using a clinically validated LC/MS method. All analysis was performed by Worldwide Clinical Trials (Morrisville, N.C.) by personnel blinded to the sample source.
Patients with prostate cancer treated with an anti-tumor vaccine and/or PD-1 develop increased IDO activity and expression. […] Because IDO is also an IFNγ-regulated gene, we questioned whether prostate cancer immunotherapy similarly elicited increases in IDO expression. We have recently reported the results of a trial in which patients with mCRPC were treated with a DNA vaccine encoding PAP alone for 12 weeks, followed by pembrolizumab over the subsequent 12 weeks, or were treated with both agents for 12 weeks (17). Sera was assessed for kynurenine and tryptophan concentrations at baseline and at 12 and 24 weeks, effectively permitting an analysis of changes in IDO activity following treatment with vaccine alone, pembrolizumab alone, or the combination. […] IFNγ concentration was also directly evaluated in sera samples.

For `Cn1cc(C[C@H](N)C(=O)O)c2ccccc21` [1-methyltryptophan], the “detection of PAP-specific IFNγ-secreting cells by ELISPOT” value in assay [1] is on record as “increased the detection of IFNγ-secreting PAP-specific cells”. Besides, in the assay on T-cell activation, the “effect on T-cell activation in vitro” value is “enhance T-cell activation in vitro”.
“IDO enzyme: indoleamine 2,3 dioxygenase enzyme added to the PBMC cultures”: the “detection of PAP-specific IFNγ-secreting cells by ELISPOT” value in assay [1] is on record as “tended to suppress”.
Consider pembrolizumab, for which the “median kyn:trp ratio post-treatment” value in the assay on IDO activity (after 12 weeks of treatment) was determined as 0.066. In the assay on IDO activity (before the 12-week treatment period), the “median kyn:trp ratio pre-treatment” value amounted to 0.061.

The values above are taken from patent US20220218809A1, “IDO ACTIVITY AS A MARKER OF TUMOR IMMUNE ESCAPE AND IDO INHIBITORS AS A MEANS OF ENHANCING T CELLS RESPONSE TO ANTIGEN SPECIFIC VACCINE” (Wisconsin Alumni Research Foundation, priority 2018, published 2022).
